How the values were obtained:
Experiment in all cases: relative viability (nuclei count vs DMSO), 5 days (fraction); higher = more cells survive
BEN = test system: BEN
Outline: (§1)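 Medians of duplicate plates are given as relative viability. That measure is the nuclei count in treated wells divided by the count in vehicle wells. Counts were taken on 4× images of lung cancer cell lines in 1536-well plates, 5 days after pin-tool dosing the day after seeding with one drug alone or a fixed anchor-drug dose plus five library-drug doses (not always all listed) in √10 steps.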

ChaGo-K-1 = test system: ChaGo-K-1
Outline: as §1

EKVX = test system: EKVX
Outline: as §1

HCC-827 = test system: HCC-827
Outline: as §1

HOP-62 = test system: HOP-62
Outline: as §1

LCLC-103H = test system: LCLC-103H
Outline: as §1

LK-2 = test system: LK-2
Outline: as §1

LOU-NH91 = test system: LOU-NH91
Outline: as §1

LXF-289 = test system: LXF-289
Outline: as §1

NCI-H1355 = test system: NCI-H1355
Outline: as §1

NCI-H1437 = test system: NCI-H1437
Outline: as §1

NCI-H1666 = test system: NCI-H1666
Outline: as §1

NCI-H1944 = test system: NCI-H1944
Outline: as §1

NCI-H1993 = test system: NCI-H1993
Outline: as §1

NCI-H2126 = test system: NCI-H2126
Outline: as §1

NCI-H2170 = test system: NCI-H2170
Outline: as §1

NCI-H441 = test system: NCI-H441
Outline: as §1

NCI-H647 = test system: NCI-H647
Outline: as §1

NCI-H661 = test system: NCI-H661
Outline: as §1

NCI-H727 = test system: NCI-H727
Outline: as §1

PC-14 = test system: PC-14
Outline: as §1

RERF-LC-KJ = test system: RERF-LC-KJ
Outline: as §1

SK-MES-1 = test system: SK-MES-1
Outline: as §1

`Cc1csc(=NC2CCCCC2)n1/N=C/c1ccc(O)c(O)c1O` [MIM1] + Nc1ncn([C@H]2C[C@H](O)[C@@H](CO)O2)c(=O)n1 [Decitabine] (partner 2 µM) showed a relative viability (BEN; first compound 0.2 µM) of 0.811, a relative viability (BEN; first compound 0.6325 µM) of 0.547 and a relative viability (BEN; first compound 2 µM) of 0.797. For the same molecule, the relative viability (BEN; first compound 6.325 µM) was 0.739, the relative viability (BEN; first compound 20 µM) was 0.317 and the relative viability (ChaGo-K-1; first compound 0.2 µM) was 0.542. For the same molecule, the relative viability (ChaGo-K-1; first compound 0.6325 µM) was 0.527, the relative viability (ChaGo-K-1; first compound 2 µM) was 0.544 and the relative viability (ChaGo-K-1; first compound 6.325 µM) was 0.459. It also gave a relative viability (ChaGo-K-1; first compound 20 µM) of 0.18, a relative viability (EKVX; first compound 0.2 µM) of 0.405 and a relative viability (EKVX; first compound 0.6325 µM) of 0.342. It also gave a relative viability (EKVX; first compound 2 µM) of 0.331, a relative viability (EKVX; first compound 6.325 µM) of 0.321 and a relative viability (EKVX; first compound 20 µM) of 0.341. The relative viability (HCC-827; first compound 0.2 µM) was 0.331, the relative viability (HCC-827; first compound 0.6325 µM) was 0.334 and the relative viability (HCC-827; first compound 2 µM) was 0.305. The relative viability (HCC-827; first compound 6.325 µM) was 0.292, the relative viability (HCC-827; first compound 20 µM) was 0.175 and the relative viability (HOP-62; first compound 0.2 µM) was 0.206. For the same molecule, the relative viability (HOP-62; first compound 0.6325 µM) was 0.222, the relative viability (HOP-62; first compound 2 µM) was 0.206 and the relative viability (HOP-62; first compound 6.325 µM) was 0.222. The relative viability (HOP-62; first compound 20 µM) was 0.147, the relative viability (LCLC-103H; first compound 0.2 µM) was 0.773 and the relative viability (LCLC-103H; first compound 0.6325 µM) was 0.778. The relative viability (LCLC-103H; first compound 2 µM) was 0.808, the relative viability (LCLC-103H; first compound 6.325 µM) was 0.666 and the relative viability (LCLC-103H; first compound 20 µM) was 0.367. It also gave a relative viability (LK-2; first compound 0.2 µM) of 0.343, a relative viability (LK-2; first compound 0.6325 µM) of 0.288 and a relative viability (LK-2; first compound 2 µM) of 0.246. The relative viability (LK-2; first compound 6.325 µM) was 0.346, the relative viability (LK-2; first compound 20 µM) was 0.163 and the relative viability (LOU-NH91; first compound 0.2 µM) was 0.787. The relative viability (LOU-NH91; first compound 0.6325 µM) was 0.788, the relative viability (LOU-NH91; first compound 2 µM) was 0.644 and the relative viability (LOU-NH91; first compound 6.325 µM) was 0.742. It also gave a relative viability (LOU-NH91; first compound 20 µM) of 0.458, a relative viability (LXF-289; first compound 0.2 µM) of 0.399 and a relative viability (LXF-289; first compound 0.6325 µM) of 0.368. For the same molecule, the relative viability (LXF-289; first compound 2 µM) was 0.394, the relative viability (LXF-289; first compound 6.325 µM) was 0.328 and the relative viability (LXF-289; first compound 20 µM) was 0.253. The relative viability (NCI-H1355; first compound 0.2 µM) was 0.361, the relative viability (NCI-H1355; first compound 0.6325 µM) was 0.343 and the relative viability (NCI-H1355; first compound 2 µM) was 0.386. It also gave a relative viability (NCI-H1355; first compound 6.325 µM) of 0.339, a relative viability (NCI-H1355; first compound 20 µM) of 0.332 and a relative viability (NCI-H1437; first compound 0.2 µM) of 0.592. It also gave a relative viability (NCI-H1437; first compound 0.6325 µM) of 0.547, a relative viability (NCI-H1437; first compound 2 µM) of 0.586 and a relative viability (NCI-H1437; first compound 6.325 µM) of 0.368. It also gave a relative viability (NCI-H1437; first compound 20 µM) of 0.303, a relative viability (NCI-H1666; first compound 0.2 µM) of 0.714 and a relative viability (NCI-H1666; first compound 0.6325 µM) of 0.741. For the same molecule, the relative viability (NCI-H1666; first compound 2 µM) was 0.665, the relative viability (NCI-H1666; first compound 6.325 µM) was 0.734 and the relative viability (NCI-H1666; first compound 20 µM) was 0.467. For the same molecule, the relative viability (NCI-H1944; first compound 0.2 µM) was 0.399, the relative viability (NCI-H1944; first compound 0.6325 µM) was 0.467 and the relative viability (NCI-H1944; first compound 2 µM) was 0.403. It also gave a relative viability (NCI-H1944; first compound 6.325 µM) of 0.412, a relative viability (NCI-H1944; first compound 20 µM) of 0.355 and a relative viability (NCI-H1993; first compound 0.2 µM) of 0.534. The relative viability (NCI-H1993; first compound 0.6325 µM) was 0.531, the relative viability (NCI-H1993; first compound 2 µM) was 0.517 and the relative viability (NCI-H1993; first compound 6.325 µM) was 0.483. For the same molecule, the relative viability (NCI-H1993; first compound 20 µM) was 0.3, the relative viability (NCI-H2126; first compound 0.2 µM) was 0.659 and the relative viability (NCI-H2126; first compound 0.6325 µM) was 0.628. For the same molecule, the relative viability (NCI-H2126; first compound 2 µM) was 0.545, the relative viability (NCI-H2126; first compound 6.325 µM) was 0.584 and the relative viability (NCI-H2126; first compound 20 µM) was 0.488. For the same molecule, the relative viability (NCI-H2170; first compound 0.2 µM) was 0.448, the relative viability (NCI-H2170; first compound 0.6325 µM) was 0.455 and the relative viability (NCI-H2170; first compound 2 µM) was 0.494. For the same molecule, the relative viability (NCI-H2170; first compound 6.325 µM) was 0.401, the relative viability (NCI-H2170; first compound 20 µM) was 0.27 and the relative viability (NCI-H441; first compound 0.2 µM) was 0.132. The relative viability (NCI-H441; first compound 0.6325 µM) was 0.252, the relative viability (NCI-H441; first compound 2 µM) was 0.241 and the relative viability (NCI-H441; first compound 6.325 µM) was 0.173. For the same molecule, the relative viability (NCI-H441; first compound 20 µM) was 0.178, the relative viability (NCI-H647; first compound 0.2 µM) was 0.414 and the relative viability (NCI-H647; first compound 0.6325 µM) was 0.364. It also gave a relative viability (NCI-H647; first compound 2 µM) of 0.397, a relative viability (NCI-H647; first compound 6.325 µM) of 0.33 and a relative viability (NCI-H647; first compound 20 µM) of 0.126. For the same molecule, the relative viability (NCI-H661; first compound 0.2 µM) was 0.496, the relative viability (NCI-H661; first compound 0.6325 µM) was 0.571 and the relative viability (NCI-H661; first compound 2 µM) was 0.577. For the same molecule, the relative viability (NCI-H661; first compound 6.325 µM) was 0.416, the relative viability (NCI-H661; first compound 20 µM) was 0.284 and the relative viability (NCI-H727; first compound 0.2 µM) was 0.994. The relative viability (NCI-H727; first compound 0.6325 µM) was 0.818, the relative viability (NCI-H727; first compound 2 µM) was 0.841 and the relative viability (NCI-H727; first compound 6.325 µM) was 0.879. The relative viability (NCI-H727; first compound 20 µM) was 0.574, the relative viability (PC-14; first compound 0.2 µM) was 0.17 and the relative viability (PC-14; first compound 0.6325 µM) was 0.197. For the same molecule, the relative viability (PC-14; first compound 2 µM) was 0.201, the relative viability (PC-14; first compound 6.325 µM) was 0.137 and the relative viability (PC-14; first compound 20 µM) was 0.0966. The relative viability (RERF-LC-KJ; first compound 0.2 µM) was 0.624, the relative viability (RERF-LC-KJ; first compound 0.6325 µM) was 0.652 and the relative viability (RERF-LC-KJ; first compound 2 µM) was 0.377. For the same molecule, the relative viability (RERF-LC-KJ; first compound 6.325 µM) was 0.301, the relative viability (RERF-LC-KJ; first compound 20 µM) was 0.22 and the relative viability (SK-MES-1; first compound 0.2 µM) was 0.454. The relative viability (SK-MES-1; first compound 0.6325 µM) was 0.424, the relative viability (SK-MES-1; first compound 2 µM) was 0.376 and the relative viability (SK-MES-1; first compound 6.325 µM) was 0.272. It also gave a relative viability (SK-MES-1; first compound 20 µM) of 0.21.

From the supplement of paper PMC10307832
